# Patent EP4603105A1, “PHARMACEUTICAL COMPOSITION CONTAINING CYCLIC COMPOUND HAVING SELECTIVE KRAS INHIBITORY EFFECT AGAINST HRAS AND NRAS” (CHUGAI SEIYAKU KABUSHIKI KAISHA, priority 2022, dated 2024)
# Read-outs that look alike come from different tables or passages of the source.
# Columns and labels:
# [1] = test system: human lung cancer strain NCI-H441; assay: NCI-H441 cell proliferation inhibitory activity (CellTiter-Glo, 4 days); format: cell-based; details: read-out: NCl-H441 IC50
# Method in brief: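 Step one: dispense the test compound in serial DMSO dilutions. Step three: add the reagent and measure […].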
# [2] = biological target: GDP-bound KRAS wild-type protein (Homo sapiens, UniProt P01116); assay: Binding to KRAS by surface plasmon resonance (SPR), dissociation constant KD
# Chain of GDP-bound KRAS wild-type protein (P01116 1-188 isoform P01116-2): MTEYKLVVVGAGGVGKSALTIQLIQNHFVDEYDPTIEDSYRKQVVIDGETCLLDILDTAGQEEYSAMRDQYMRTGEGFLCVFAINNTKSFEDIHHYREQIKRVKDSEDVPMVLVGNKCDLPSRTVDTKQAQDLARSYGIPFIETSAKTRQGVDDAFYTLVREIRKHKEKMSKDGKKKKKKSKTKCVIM
# Method in brief: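 SPR, 30°C: Avi-biotin RAS·GDP captured via Biotin CAPture (~100–300 RU); running buffer HBS pH 7.4, 1 mM DTT, 10 mM MgCl2, 0.01% Tween 20, 10 µM GDP, 4% DMSO. Single-cycle kinetics, 100 µL/min, 75 s injections; 1:1 model → KD.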
# [3] = biological target: GDP-bound NRAS wild-type protein (Homo sapiens, UniProt P01111); assay: Binding to NRAS by surface plasmon resonance (SPR), KD and KD ratio to KRAS
# Chain of GDP-bound NRAS wild-type protein (P01111 whole entry): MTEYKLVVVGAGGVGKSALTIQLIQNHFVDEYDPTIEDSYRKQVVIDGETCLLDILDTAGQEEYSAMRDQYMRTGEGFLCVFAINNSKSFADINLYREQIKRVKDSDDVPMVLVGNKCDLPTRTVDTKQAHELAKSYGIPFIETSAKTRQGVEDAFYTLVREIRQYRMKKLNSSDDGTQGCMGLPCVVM
# Method in brief: (§1)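 Running buffer contained 10 µM GDP and 10 mM MgCl2 to keep RAS in the GDP state, with 4% DMSO at pH 7.4. Compounds were flowed at 100 µL/min in 75 s steps of rising concentration over captured biotin-Avi RAS at 30°C. Sensorgrams were fitted 1:1 for KD.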
# HRAS wild-type protein = HRAS wild-type protein (Homo sapiens, UniProt P01112); assay: Binding to HRAS by surface plasmon resonance (SPR), KD and KD ratio to KRAS
# Chain of HRAS wild-type protein (P01112 whole entry): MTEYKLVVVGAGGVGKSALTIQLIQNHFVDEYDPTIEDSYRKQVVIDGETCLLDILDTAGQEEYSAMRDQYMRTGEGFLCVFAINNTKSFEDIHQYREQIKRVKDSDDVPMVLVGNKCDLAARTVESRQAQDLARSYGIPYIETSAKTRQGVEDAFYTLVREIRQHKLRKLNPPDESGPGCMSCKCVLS
# Method in brief: as §1
# [4] = ratio of KD for GDP-bound NRAS wild-type protein to KD for KRAS
# [5] = ratio of KD for HRAS wild-type protein to KD for KRAS
# [6] = 50% proliferation inhibitory concentration, four days
# [7] = Single Cycle Kinetics, 1:1 binding model
# [8] = ratio of KD with respect to GDP-bound NRAS wild-type protein to KD with respect to KRAS
# [9] = ratio of KD with respect to HRAS wild-type protein to KD with respect to KRAS
Structure (SMILES),"IC50 ([1]; NCI-H441 cells, 4 days) [nM]",Kd ([2]; 1:1 binding model) [nM],Kd ([2]; Single Cycle Kinetics) [nM],"IC50 [1, 6] [nM]","Kd [2, 7] [nM]","NRAS /KRAS [3, 4]",HRAS /KRAS (HRAS wild-type protein; [5]),"NRAS /KRAS [3, 8]",HRAS /KRAS (HRAS wild-type protein; [9])
CCOC[C@H]1C(=O)N[C@@H]([C@@H](C)CC)C(=O)N(C)CC(=O)N(C)[C@H]2C/C=C\CCN(C2=O)[C@@H](CC2CCCCC2)C(=O)N(C)CC(=O)N[C@@H](CCc2ccc(C(F)(F)F)c(OC)c2)C(=O)N2C[C@@H](C)C[C@H]2C(=O)N(C)C2(CCC2)C(=O)N(C)[C@@H](C2CCCC2)C(=O)N(C)[C@H](C(=O)N(C)C)CC(=O)N1C [PP2371],41.9,0.64,–,–,–,A (a compound having 10 or more and less than 20 is denoted as A),B (a compound having 3 or more and less than 10 is denoted as B),–,–
CCO[C@@H]1C[C@H]2C(=O)NC3(CCC3)C(=O)N(C)[C@@H](C3CCCC3)C(=O)N(C)[C@H](C(=O)N(C)C)CC(=O)N(C)[C@@H](CC3CC3)C(=O)N[C@@H]([C@@H](C)CC)C(=O)N(C)CC(=O)N(C)[C@H]3C/C=C\CCN(C3=O)[C@@H](Cc3ccc(F)cc3C)C(=O)N(C)CC(=O)N[C@@H](CCc3ccc(Cl)c(Cl)c3)C(=O)N2C1 [PP1476],–,–,–,216,1,–,–,A (a compound having 10 or more and less than 20 is denoted as A),B (a compound having 3 or more and less than 10 is denoted as B)
CCO[C@@H]1C[C@H]2C(=O)NC3(CCC3)C(=O)N(C)[C@@H](C3CCCC3)C(=O)N(C)[C@@H](C(=O)N(C)C)CC(=O)N(C)[C@@H](CC)C(=O)N[C@@H]([C@@H](C)CC)C(=O)N(C)CC(=O)N(C)[C@H]3C/C=C\CCN(C3=O)[C@@H](Cc3ccc(C(F)(F)F)cc3)C(=O)N(C)CC(=O)N[C@@H](CCc3cc(F)c(C(F)(F)F)c(F)c3)C(=O)N2C1 [PP1234],–,–,–,398,3.8,–,–,B (a compound having 3 or more and less than 10 is denoted as B),C (A compound having a KD ratio of 0.1 or more and less than 3 is denoted as C)
CC[C@H](C)[C@@H]1NC(=O)[C@H](CC2CC2)N(C)C(=O)C[C@@H](C(=O)N(C)C)N(C)C(=O)[C@H](C2CCCC2)N(C)C(=O)C2(CCCC2)NC(=O)[C@@H]2CCCN2C(=O)[C@H](CCc2cc(F)c(C(F)(F)F)c(F)c2)NC(=O)CN(C)C(=O)[C@H](Cc2ccc(C(F)(F)F)cc2)N2C[C@H](C)[C@H](C)C[C@@H](C2=O)N(C)C(=O)CN(C)C1=O [PP1368],–,–,–,2.9,0.061,–,–,A (a compound having 10 or more and less than 20 is denoted as A),B (a compound having 3 or more and less than 10 is denoted as B)
CCO[C@@H]1C[C@H]2C(=O)NC3(CCC3)C(=O)N(C)[C@@H](C3CCCC3)C(=O)N(C)[C@H](C(=O)N(C)C)CC(=O)N(C)[C@@H](CC3CC3)C(=O)N[C@@H]([C@@H](C)CC)C(=O)N(C)CC(=O)N(C)[C@H]3C/C=C\CCN(C3=O)[C@@H](Cc3ccc(C)cc3)C(=O)N(C)CC(=O)N[C@@H](CCc3cc(F)c(C(F)(F)F)c(F)c3)C(=O)N2C1 [PP1407],–,–,–,18.7,0.074,–,–,A (a compound having 10 or more and less than 20 is denoted as A),A (a compound having 10 or more and less than 20 is denoted as A)
CCO[C@@H]1C[C@H]2C(=O)NC3(CCC3)C(=O)N(C)[C@@H](C3CCCC3)C(=O)N(C)[C@H](C(=O)N3CCOCC3)CC(=O)N(C)[C@@H](C)C(=O)N[C@@H]([C@@H](C)CC)C(=O)N(C)CC(=O)N(C)[C@H]3CCCCCN(C3=O)[C@@H](Cc3ccc(F)cc3)C(=O)N(C)CC(=O)N[C@@H](CCc3cc(F)c(C(F)(F)F)c(F)c3)C(=O)N2C1 [PP1175],–,–,–,23.5,0.16,–,–,B (a compound having 3 or more and less than 10 is denoted as B),B (a compound having 3 or more and less than 10 is denoted as B)

# Continued, in another order:
"IC50 ([1]; NCI-H441 cells, 4 days) [nM]",Kd ([2]; 1:1 binding model) [nM],Kd ([2]; Single Cycle Kinetics) [nM],"IC50 [1, 6] [nM]","Kd [2, 7] [nM]",Structure (SMILES),"NRAS /KRAS [3, 4]",HRAS /KRAS (HRAS wild-type protein; [5]),"NRAS /KRAS [3, 8]",HRAS /KRAS (HRAS wild-type protein; [9])
185,2.8,–,–,–,CCO[C@@H]1C[C@H]2C(=O)NC3(CC(C)(C)C3)C(=O)N(C)[C@@H](C(CC)CC)C(=O)N(C)[C@H](C(=O)N(C)C)CC(=O)N(C)[C@@H](COC)C(=O)N[C@@H]([C@@H](C)CC)C(=O)N(C3CC3)CC(=O)N(C)[C@H]3C/C=C\CCN(C3=O)[C@@H](CC3CCC(F)(F)CC3)C(=O)N(C)CC(=O)N[C@@H](CCc3ccc(Cl)c(Cl)c3)C(=O)N2C1 [PP2569],AA (a compound having 20 or more is denoted as AA),A (a compound having 10 or more and less than 20 is denoted as A),–,–
1.9,–,0.021,–,–,CCC[C@H]1C(=O)N[C@@H]([C@@H](C)CC)C(=O)N(C)CC(=O)N(C)[C@H]2C/C=C\CCN(C2=O)[C@@H](Cc2ccc(C)cc2)C(=O)N(C)CC(=O)N[C@@H](CCc2ccc(C(F)(F)F)c(OC)c2)C(=O)N2CC3(CC3)C[C@H]2C(=O)N(C)C2(CCC2)C(=O)N(C)[C@@H](C2CCCC2)C(=O)N(C)[C@H](C(=O)N(C)C)CC(=O)N1C [PP3290],A (a compound having 10 or more and less than 20 is denoted as A),B (a compound having 3 or more and less than 10 is denoted as B),–,–
62.6,0.49,–,–,–,CCOC[C@H]1C(=O)N[C@@H]([C@@H](C)CC)C(=O)N(C)CC(=O)N(C)[C@H]2C/C=C\CCN(C2=O)[C@@H](Cc2ccc(C(F)(F)F)cc2)C(=O)N(C)CC(=O)N[C@@H](CCc2ccc(Cl)c(Cl)c2)C(=O)N2C[C@H](OCC)C[C@H]2C(=O)NC2(CC(C)(C)C2)C(=O)N(C)[C@@H](CC2CCC2)C(=O)N(C)[C@H](C(=O)N(C)C)CC(=O)N1C [PP2767],A (a compound having 10 or more and less than 20 is denoted as A),A (a compound having 10 or more and less than 20 is denoted as A),–,–
10.6,0.15,–,–,–,CCCOC[C@H]1C(=O)N[C@@H]([C@@H](C)CC)C(=O)N(C)CC(=O)N(C)[C@H]2C/C=C\CCN(C2=O)[C@@H](Cc2ccc(C)cc2)C(=O)N(C)CC(=O)N[C@@H](CCc2ccc(C(F)(F)F)c(OC)c2)C(=O)N2C[C@@H](C)C[C@H]2C(=O)NC2(CC(C)(C)C2)C(=O)N(C)[C@@H](C2CCCC2)C(=O)N(C)[C@H](C(=O)N(C)CC)CC(=O)N1C [PP2461],A (a compound having 10 or more and less than 20 is denoted as A),A (a compound having 10 or more and less than 20 is denoted as A),–,–
10.9,–,0.32,–,–,CCCO[C@@H]1C[C@H]2C(=O)NC3(CC(C)(C)C3)C(=O)N(C)[C@@H](C3CCCC3)C(=O)N(C)[C@H](C(=O)N(C)CC)CC(=O)N(C)[C@@H](COCC)C(=O)N[C@@H]([C@@H](C)CC)C(=O)N3C[C@@H](F)C[C@H]3C(=O)N(C)[C@H]3C/C=C\CCN(C3=O)[C@@H](Cc3ccc(C(F)(F)F)cc3)C(=O)N(C)CC(=O)N[C@@H](CCc3cc(F)c(C(F)(F)F)c(F)c3)C(=O)N2C1 [PP3401],A (a compound having 10 or more and less than 20 is denoted as A),A (a compound having 10 or more and less than 20 is denoted as A),–,–
7.1,0.2,–,–,–,CCO[C@@H]1C[C@H]2C(=O)NC3(CC(C)(C)C3)C(=O)N(C)[C@@H](CC(C)(C)C)C(=O)N(C)[C@H](C(=O)N(C)C)CC(=O)N(C)[C@@H](COC)C(=O)N[C@@H]([C@@H](C)CC)C(=O)N(C3CC3)CC(=O)N(C)[C@H]3C/C=C\CCN(C3=O)[C@@H](Cc3ccc(C(F)(F)F)cc3)C(=O)N(C)CC(=O)N[C@@H](CCc3ccc(C(F)(F)F)c(OC)c3)C(=O)N2C1 [PP2748],A (a compound having 10 or more and less than 20 is denoted as A),A (a compound having 10 or more and less than 20 is denoted as A),–,–
7.1,–,0.11,–,–,CCC[C@H]1C(=O)N[C@@H]([C@@H](C)CC)C(=O)N2CC[C@H]2C(=O)N(C)[C@H]2C/C(F)=C\CCN(C2=O)[C@@H](Cc2ccc(C(F)(F)F)cc2)C(=O)N(C)CC(=O)N[C@@H](CCc2ccc(C(F)(F)F)c(OC)c2)C(=O)N2C[C@H](OCC)C[C@H]2C(=O)N(C)C2(CCC2)C(=O)N(C)[C@@H](C2CCCC2)C(=O)N(C)[C@H](C(=O)N(C)C)CC(=O)N1C [PP3529],B (a compound having 3 or more and less than 10 is denoted as B),B (a compound having 3 or more and less than 10 is denoted as B),–,–
5.3,0.12,–,–,–,CCOC[C@H]1C(=O)N[C@@H]([C@@H](C)CC)C(=O)N(C)CC(=O)N(C)[C@H]2C/C=C\CCN(C2=O)[C@@H](Cc2ccc(C)cc2)C(=O)N(C)CC(=O)N[C@@H](CCc2ccc(C(F)(F)F)c(Cl)c2)C(=O)N2C[C@H](OCC)C[C@H]2C(=O)NC2(CC(C)(C)C2)C(=O)N(C)[C@@H](C2CCCC2)C(=O)N(C)[C@H](C(=O)N(C)CC)CC(=O)N1C [PP2401],A (a compound having 10 or more and less than 20 is denoted as A),A (a compound having 10 or more and less than 20 is denoted as A),–,–
10.6,0.092,–,–,–,CCCOC[C@H]1C(=O)N[C@@H]([C@@H](C)CC)C(=O)N(C)CC(=O)N(C)[C@H]2C/C=C\CCN(C2=O)[C@@H](Cc2ccc(C)cc2)C(=O)N(C)CC(=O)N[C@@H](CCc2ccc(C(F)(F)F)c(Cl)c2)C(=O)N2C[C@H](OCC)C[C@H]2C(=O)NC2(CC(C)(C)C2)C(=O)N(C)[C@@H](C2CCCC2)C(=O)N(C)[C@H](C(=O)N(C)C)CC(=O)N1C [PP2402],A (a compound having 10 or more and less than 20 is denoted as A),A (a compound having 10 or more and less than 20 is denoted as A),–,–
